ChEMBL document CHEMBL5303573, “Mapping human microbiome drug metabolism by gut bacteria and their genes” (Nature, 2019)

Assays:
Format in all cases: ADME
Conditions in all cases: 2 µM
[1] = biological target: T1, Steroid 5-alpha reductase C-terminal domain-containing protein (Phocaeicola dorei, UniProt B6W0N3); experiment: (§1) The drug is tested on Bacteroides dorei strain: DSM17855 for biotransformation. The drug concentrations were measured before and after a 12-h incubation by liquid-chromatography-coupled mass spectrometry (LC–MS); parameters: dose 2 uM
T1 sequence (B6W0N3 whole entry): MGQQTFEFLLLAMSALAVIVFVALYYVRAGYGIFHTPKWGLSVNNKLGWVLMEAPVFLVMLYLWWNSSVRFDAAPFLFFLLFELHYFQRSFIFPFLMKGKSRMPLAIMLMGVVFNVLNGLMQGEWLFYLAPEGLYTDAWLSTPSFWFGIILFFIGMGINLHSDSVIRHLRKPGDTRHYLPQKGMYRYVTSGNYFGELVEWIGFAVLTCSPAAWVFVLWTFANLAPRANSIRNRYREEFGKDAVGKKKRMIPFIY

[2] = biological target: T2, Nitroreductase domain-containing protein (Phocaeicola dorei, UniProt B6VU18); experiment: as §1; parameters: dose 2 uM
T2 sequence (B6VU18 whole entry): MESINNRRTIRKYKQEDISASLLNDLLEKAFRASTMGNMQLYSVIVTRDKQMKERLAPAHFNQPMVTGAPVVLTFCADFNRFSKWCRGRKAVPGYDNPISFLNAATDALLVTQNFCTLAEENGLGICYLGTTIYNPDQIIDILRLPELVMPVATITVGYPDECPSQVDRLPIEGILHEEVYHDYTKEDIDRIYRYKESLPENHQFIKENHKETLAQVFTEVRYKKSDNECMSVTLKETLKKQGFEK

[3] = biological target: T3, Acyltransferase 3 domain-containing protein (Phocaeicola dorei, UniProt B6W2J3); experiment: as §1; parameters: dose 2 uM
T3 sequence (B6W2J3 whole entry): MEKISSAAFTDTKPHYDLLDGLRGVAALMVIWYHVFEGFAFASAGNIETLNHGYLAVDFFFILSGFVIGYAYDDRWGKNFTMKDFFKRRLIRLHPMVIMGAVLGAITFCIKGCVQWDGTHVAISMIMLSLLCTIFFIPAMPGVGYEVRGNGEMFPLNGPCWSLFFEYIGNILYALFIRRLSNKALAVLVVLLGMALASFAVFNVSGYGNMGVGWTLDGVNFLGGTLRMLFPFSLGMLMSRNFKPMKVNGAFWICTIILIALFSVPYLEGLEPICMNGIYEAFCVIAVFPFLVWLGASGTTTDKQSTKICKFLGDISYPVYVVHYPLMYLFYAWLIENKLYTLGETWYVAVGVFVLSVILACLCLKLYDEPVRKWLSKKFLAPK

[4] = biological target: T4, Esterase (Phocaeicola dorei, UniProt B6W2J6); experiment: as §1; parameters: dose 2 uM
T4 sequence (B6W2J6 whole entry): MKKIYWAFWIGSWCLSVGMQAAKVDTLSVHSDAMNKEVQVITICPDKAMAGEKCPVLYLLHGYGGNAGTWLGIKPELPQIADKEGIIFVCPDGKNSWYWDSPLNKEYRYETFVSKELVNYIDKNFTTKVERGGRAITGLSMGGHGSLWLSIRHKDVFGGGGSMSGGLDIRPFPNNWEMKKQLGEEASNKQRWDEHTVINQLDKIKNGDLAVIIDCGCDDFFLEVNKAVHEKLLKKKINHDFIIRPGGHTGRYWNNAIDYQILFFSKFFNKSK

[5] = biological target: T5, Nitroreductase domain-containing protein (Phocaeicola dorei, UniProt B6W3P3); experiment: as §1; parameters: dose 2 uM
T5 sequence (B6W3P3 whole entry): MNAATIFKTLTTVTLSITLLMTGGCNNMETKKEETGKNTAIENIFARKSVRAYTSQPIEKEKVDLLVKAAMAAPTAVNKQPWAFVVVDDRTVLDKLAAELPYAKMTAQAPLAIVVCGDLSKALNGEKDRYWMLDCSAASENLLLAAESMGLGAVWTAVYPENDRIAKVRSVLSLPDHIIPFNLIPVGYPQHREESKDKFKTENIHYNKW

[6] = (§2) The drug is tested on the gut metagenome community of MV06 with ENA study accession number: PRJEB31790 and ENA sample accession number: SAMEA5537487 for biotransformation. The drug concentrations were measured over 9 timepoints collected between 0 and 24 hours of incubation by liquid-chromatography-coupled mass spectrometry (LC–MS); parameters: dose 2 uM, timepoint 0, 1, 2, 4, 6, 8, 12, 18, 24 hours
[7] = biological target: T6, SGNH hydrolase-type esterase domain-containing protein (Phocaeicola dorei, UniProt B6VTE7); experiment: as §1; parameters: dose 2 uM
T6 sequence (B6VTE7 whole entry): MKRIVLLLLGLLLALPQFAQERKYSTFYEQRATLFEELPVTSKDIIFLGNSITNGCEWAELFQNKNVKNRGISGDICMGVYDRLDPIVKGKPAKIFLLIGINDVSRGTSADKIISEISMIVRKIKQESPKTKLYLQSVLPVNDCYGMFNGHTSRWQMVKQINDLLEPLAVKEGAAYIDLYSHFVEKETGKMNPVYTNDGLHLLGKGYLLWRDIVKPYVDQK

[8] = biological target: T7, SGNH hydrolase-type esterase domain-containing protein (Phocaeicola dorei, UniProt B6W293); experiment: as §1; parameters: dose 2 uM
T7 sequence (B6W293 whole entry): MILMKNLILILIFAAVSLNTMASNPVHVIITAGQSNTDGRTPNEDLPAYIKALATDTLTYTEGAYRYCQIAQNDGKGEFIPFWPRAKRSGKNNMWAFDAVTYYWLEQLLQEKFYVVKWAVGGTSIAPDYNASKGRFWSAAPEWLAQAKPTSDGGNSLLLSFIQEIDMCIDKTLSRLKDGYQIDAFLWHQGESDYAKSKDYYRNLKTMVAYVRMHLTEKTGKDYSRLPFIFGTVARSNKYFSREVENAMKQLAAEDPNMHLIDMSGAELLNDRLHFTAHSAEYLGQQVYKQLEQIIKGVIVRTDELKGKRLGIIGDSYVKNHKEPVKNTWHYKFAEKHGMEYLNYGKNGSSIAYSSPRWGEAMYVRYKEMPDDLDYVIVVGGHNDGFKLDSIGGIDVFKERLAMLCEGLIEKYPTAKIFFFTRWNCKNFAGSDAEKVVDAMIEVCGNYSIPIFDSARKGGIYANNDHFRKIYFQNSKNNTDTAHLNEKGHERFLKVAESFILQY

[9] = biological target: T8, SGNH hydrolase-type esterase domain-containing protein (Phocaeicola dorei, UniProt B6W1J1); experiment: as §1; parameters: dose 2 uM
T8 sequence (B6W1J1 whole entry): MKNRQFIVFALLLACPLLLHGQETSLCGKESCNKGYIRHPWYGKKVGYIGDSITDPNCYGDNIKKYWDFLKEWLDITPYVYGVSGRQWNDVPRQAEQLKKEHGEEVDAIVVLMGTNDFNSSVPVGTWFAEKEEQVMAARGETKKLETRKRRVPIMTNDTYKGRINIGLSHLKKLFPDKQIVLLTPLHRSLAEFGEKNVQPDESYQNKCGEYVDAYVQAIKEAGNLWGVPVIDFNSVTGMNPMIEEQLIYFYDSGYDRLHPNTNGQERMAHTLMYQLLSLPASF

[10] = as §2, with “MV23” for “MV06”, “SAMEA5537504” for “SAMEA5537487”; parameters: dose 2 uM, timepoint 0, 1, 2, 4, 6, 8, 12, 18, 24 hours

| SMILES | Bacterial Biotransformation [1] | Bacterial Biotransformation [2] | Bacterial Biotransformation [3] | Bacterial Biotransformation [4] | Bacterial Biotransformation [5] | Bacterial Biotransformation [6] | Bacterial Biotransformation [7] | Bacterial Biotransformation [8] | Bacterial Biotransformation [9] | Bacterial Biotransformation [10] |
| --- | --- | --- | --- | --- | --- | --- | --- | --- | --- | --- |
| CC(=O)OCC(=O)[C@@]1(OC(C)=O)[C@@H](C)C[C@H]2[C@@H]3C[C@H](F)C4=CC(=O)C=C[C@]4(C)[C@@]3(F)[C@@H](O)C[C@@]21C [DIFLORASONE DIACETATE] | Compound NOT metabolized | Compound NOT metabolized | Compound NOT metabolized | Compound NOT metabolized | Compound NOT metabolized | – | – | – | – | – |
| COc1ccc([C@@H]2Sc3ccccc3N(CCN(C)C)C(=O)[C@@H]2OC(C)=O)cc1 [DILTIAZEM] | Compound NOT metabolized | Compound NOT metabolized | Compound NOT metabolized | Compound NOT metabolized | Compound NOT metabolized | Compound NOT metabolized | Compound NOT metabolized | Compound NOT metabolized | Compound NOT metabolized | Compound NOT metabolized |
| CC(=O)OCC(CCn1cnc2cnc(N)nc21)COC(C)=O [FAMCICLOVIR] | Compound NOT metabolized | Compound NOT metabolized | Compound NOT metabolized | Compound metabolized | Compound NOT metabolized | Compound metabolized | Compound metabolized | Compound metabolized | – | Compound metabolized |

Continued, values first:

| Bacterial Biotransformation [1] | Bacterial Biotransformation [2] | Bacterial Biotransformation [3] | Bacterial Biotransformation [4] | Bacterial Biotransformation [5] | Bacterial Biotransformation [6] | Bacterial Biotransformation [7] | Bacterial Biotransformation [8] | Bacterial Biotransformation [9] | Bacterial Biotransformation [10] | SMILES |
| --- | --- | --- | --- | --- | --- | --- | --- | --- | --- | --- |
| Compound metabolized | Compound NOT metabolized | Compound NOT metabolized | Compound NOT metabolized | Compound NOT metabolized | – | Compound NOT metabolized | Compound NOT metabolized | Compound NOT metabolized | – | C#C[C@]1(O)CC[C@H]2[C@@H]3CCC4=CC(=O)CC[C@@H]4[C@H]3CC[C@@]21CC [LEVONORGESTREL] |
| Compound metabolized | Compound NOT metabolized | Compound NOT metabolized | Compound NOT metabolized | Compound NOT metabolized | Compound metabolized | Compound NOT metabolized | Compound NOT metabolized | Compound NOT metabolized | Compound metabolized | C#C[C@]1(OC(C)=O)CC[C@H]2[C@@H]3CCC4=CC(=O)CC[C@@H]4[C@H]3CC[C@@]21C [NORETHINDRONE ACETATE] |
